Test results from patent publication US7411083B2, “Substituted acetic acid derivatives” (Wyeth, priority 2003, dated 2008).

molecular target: T1, recombinant human plasminogen activator inhibitor-1 (PAI-1) (Homo sapiens, UniProt P05121); experiment: Screening for PAI-1 inhibition (residual tPA activity, Spectrozyme-tPA chromogenic substrate); format: biochemical; conditions: test compound at 100 Um; pH 6.6 buffer, 140 nM PAI-1, 70 nM tPA
T1 construct: purchased Molecular Innovations, Royal Oak, Mich
T1 sequence (P05121 24-402): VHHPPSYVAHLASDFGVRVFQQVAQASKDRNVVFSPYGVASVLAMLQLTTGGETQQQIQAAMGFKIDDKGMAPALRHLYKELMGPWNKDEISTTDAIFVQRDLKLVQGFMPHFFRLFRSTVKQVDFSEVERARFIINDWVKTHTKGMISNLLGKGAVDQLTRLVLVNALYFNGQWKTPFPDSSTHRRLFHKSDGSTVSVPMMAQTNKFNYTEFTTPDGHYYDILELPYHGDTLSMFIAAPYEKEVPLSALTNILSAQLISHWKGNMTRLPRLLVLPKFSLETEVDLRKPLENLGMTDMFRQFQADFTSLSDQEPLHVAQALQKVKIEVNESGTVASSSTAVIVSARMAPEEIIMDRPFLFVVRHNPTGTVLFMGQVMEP
Experimental: Screening for PAI-1 inhibition. Test compounds are dissolved in DMSO at a final concentration of 10 Mm, then diluted 100× in physiologic buffer. The inhibitory assay is initiated by the addition of the test compound (1-100 μM final concentration, maximum DMSO concentration of 0.2%) in a Ph 6.6 buffer containing 140 Nm recombinant human plasminogen activator inhibitor-1 (PAI-1; Molecular Innovations, Royal Oak, Mich.). Following a 1 hour incubation at room temperature, 70 Nm of recombinant human tissue plasminogen activator (Tpa) is added, and the combination of the test compound, PAI-1 and Tpa is incubated for an additional 30 minutes. Following the second incubation, Spectrozyme-Tpa (American Diagnostica, Greenwich, Conn.), a chromogenic substrate for Tpa, is added and absorbance read at 405 nm at 0 and 60 minutes. Relative PAI-1 inhibition is equal to the residual Tpa activity in the presence of the test compounds and PAI-1. Control treatments include the complete inhibition of Tpa by PAI-1 at the molar ratio employed (2:1), and the absence of any effect of the test compound on Tpa alone.

SMILES | inhibition at 100 µM
C=CCn1cc(/C=N/OCC(=O)O)c2cc(OCc3ccc(C(F)(F)F)cc3)ccc21 [Compound 1, ({[(1E)-(1-allyl-5-{[4-(trifluoromethyl)benzyl]oxy}-1H-indol-3-yl)methylidene]amino}oxy)acetic acid] | 86%
CCn1cc(/C=N/OCC(=O)O)c2cc(OCc3ccc(C(F)(F)F)cc3)ccc21 [Compound 2, ({[(1E)-(1-ethyl-5-{[4-(trifluoromethyl)benzyl]oxy}-1H-indol-3-yl)methylidene]amino}oxy)acetic acid] | 83%
C=CCn1cc(/C=N/OCC(=O)O)c2cc(OCc3ccc(C(C)(C)C)cc3)ccc21 [Compound 4, {[((1E)-{1-allyl-5-[(4-tert-butylbenzyl)oxy]-1H-indol-3-yl}methylidene)amino]oxy}acetic acid] | 83%
CC(C)(C)c1ccc(COc2ccc3c(c2)c(/C=N/OCC(=O)O)cn3Cc2ccccc2)cc1 [Compound 6, {[((1E)-{1-benzyl-5-[(4-tert-butylbenzyl)oxy]-1H-indol-3-yl}methylidene)amino]oxy}acetic acid] | 68%
CCn1cc(/C=N/OCC(=O)O)c2cc(OCc3cc(C(F)(F)F)cc(C(F)(F)F)c3)ccc21 [Compound 11, ({[(1E)-(5-{[3,5-bis(trifluoromethyl)benzyl]oxy}-1-ethyl-1H-indol-3-yl)methylidene]amino}oxy)acetic acid] | 71%
C=CCn1cc(/C=N/OCC(=O)O)c2cc(OCc3cccc(Br)c3)ccc21 [Compound 13, {[((1E)-{1-allyl-5-[(3-bromobenzyl)oxy]-1H-indol-3-yl}methylidene)amino]oxy}acetic acid] | 95%
CCn1cc(/C=N/OCC(=O)O)c2cc(OCc3cccc(Br)c3)ccc21 [Compound 14, {[((1E)-{5-[(3-bromobenzyl)oxy]-1-ethyl-1H-indol-3-yl}methylidene)amino]oxy}acetic acid] | 80%
C=CCn1cc(/C=N/OCC(=O)O)c2cc(OCc3ccc(C)cc3)ccc21 [Compound 19, {[((1E)-{1-allyl-5-[(4-methylbenzyl)oxy]-1H-indol-3-yl}methylidene)amino]oxy}acetic acid] | 73%
CCn1cc(/C=N/OCC(=O)O)c2cc(OCc3cccc(C)c3)ccc21 [Compound 26, {[((1E)-{1-ethyl-5-[(3-methylbenzyl)oxy]-1H-indol-3-yl}methylidene)amino]oxy}acetic acid] | 26%
CCn1cc(/C=N/OCC(=O)O)c2cc(OCc3ccccc3Cl)ccc21 [Compound 28, {[((1E)-{5-[(2-chlorobenzyl)oxy]-1-ethyl-1H-indol-3-yl}methylidene)amino]oxy}acetic acid] | 70%
O=C(O)CO/N=C/c1cn(Cc2ccccc2)c2ccc(OCc3ccccc3Cl)cc12 [Compound 29, {[((1E)-{1-benzyl-5-[(2-chlorobenzyl)oxy]-1H-indol-3-yl}methylidene)amino]oxy}acetic acid] | 82%
O=C(O)CO/N=C/c1c[nH]c2ccc(OCc3ccccc3Cl)cc12 [Compound 30, {[((1E)-{5-[(2-chlorobenzyl)oxy]-1H-indol-3-yl}methylidene)amino]oxy}acetic acid] | 11%
C#CCn1cc(/C=N/OCC(=O)O)c2cc(OCc3ccc(C(F)(F)F)cc3)ccc21 [Compound 31, ({[(1E)-(1-(2-propynyl)-5-{[4-(trifluoromethyl)benzyl]oxy}-1H-indol-3-yl)methylidene]amino}oxy)acetic acid] | 90%
C#CCn1cc(/C=N/OCC(=O)O)c2cc(OCc3ccc(C(C)(C)C)cc3)ccc21 [Compound 33, [({(1E)-[5-[(4-tert-butylbenzyl)oxy]-1-(2-propynyl)-1H-indol-3-yl]methylidene}amino)oxy]acetic acid] | 91%
C#CCn1cc(/C=N/OCC(=O)O)c2cc(OCc3cc(C(F)(F)F)cc(C(F)(F)F)c3)ccc21 [Compound 35, [({(1E)-[5-{[3,5-bis(trifluoromethyl)benzyl]oxy}-1-(2-propynyl)-1H-indol-3-yl]methylidene}amino)oxy]acetic acid] | 44%

Continued, values first:

inhibition at 100 µM | SMILES
93% | CCn1cc(/C=N/OCC(=O)O)c2cc(OCc3ccc(C(C)(C)C)cc3)ccc21 [Compound 5, {[((1E)-{5-[(4-tert-butylbenzyl)oxy]-1-ethyl-1H-indol-3-yl}methylidene)amino]oxy}acetic acid]
83% | C=CCn1cc(/C=N/OCC(=O)O)c2cc(OCc3ccc(Br)cc3)ccc21 [Compound 7, {[((1E)-{1-allyl-5-[(4-bromobenzyl)oxy]-1H-indol-3-yl}methylidene)amino]oxy}acetic acid]
63% | CCn1cc(/C=N/OCC(=O)O)c2cc(OCc3ccc(Br)cc3)ccc21 [Compound 8, {[((1E)-{5-[(4-bromobenzyl)oxy]-1-ethyl-1H-indol-3-yl}methylidene)amino]oxy}acetic acid]
86% | C=CCn1cc(/C=N/OCC(=O)O)c2cc(OCc3cc(C(F)(F)F)cc(C(F)(F)F)c3)ccc21 [Compound 10, ({[(1E)-(1-allyl-5-{[3,5-bis(trifluoromethyl)benzyl]oxy}-1H-indol-3-yl)methylidene]amino}oxy)acetic acid]
57% | O=C(O)CO/N=C/c1cn(Cc2ccccc2)c2ccc(OCc3cc(C(F)(F)F)cc(C(F)(F)F)c3)cc12 [Compound 12, ({[(1E)-(1-benzyl-5-{[3,5-bis(trifluoromethyl)benzyl]oxy}-1H-indol-3-yl)methylidene]amino}oxy)acetic acid]
71% | O=C(O)CO/N=C/c1cn(Cc2ccccc2)c2ccc(OCc3cccc(Br)c3)cc12 [Compound 15, {[((1E)-{1-benzyl-5-[(3-bromobenzyl)oxy]-1H-indol-3-yl}methylidene)amino]oxy}acetic acid]
58% | C=CCn1cc(/C=N/OCC(=O)O)c2cc(OCc3cccc(Cl)c3)ccc21 [Compound 16, {[((1E)-{1-allyl-5-[(3-chlorobenzyl)oxy]-1H-indol-3-yl}methylidene)amino]oxy}acetic acid]
68% | CCn1cc(/C=N/OCC(=O)O)c2cc(OCc3cccc(Cl)c3)ccc21 [Compound 17, {[((1E)-{5-[(3-chlorobenzyl)oxy]-1-ethyl-1H-indol-3-yl}methylidene)amino]oxy}acetic acid]
84% | O=C(O)CO/N=C/c1cn(Cc2ccccc2)c2ccc(OCc3cccc(Cl)c3)cc12 [Compound 18, {[((1E)-{1-benzyl-5-[(3-chlorobenzyl)oxy]-1H-indol-3-yl}methylidene)amino]oxy}acetic acid]
44% | CCn1cc(/C=N/OCC(=O)O)c2cc(OCc3ccc(C)cc3)ccc21 [Compound 20, {[((1E)-{1-ethyl-5-[(4-methylbenzyl)oxy]-1H-indol-3-yl}methylidene)amino]oxy}acetic acid]
80% | Cc1ccc(COc2ccc3c(c2)c(/C=N/OCC(=O)O)cn3Cc2ccccc2)cc1 [Compound 21, {[((1E)-{1-benzyl-5-[(4-methylbenzyl)oxy]-1H-indol-3-yl}methylidene)amino]oxy}acetic acid]
80% | C=CCn1cc(/C=N/OCC(=O)O)c2cc(OCc3cccc(C(F)(F)F)c3)ccc21 [Compound 22, ({[(1E)-(1-allyl-5-{[3-(trifluoromethyl)benzyl]oxy}-1H-indol-3-yl)methylidene]amino}oxy)acetic acid]
56% | CCn1cc(/C=N/OCC(=O)O)c2cc(OCc3cccc(C(F)(F)F)c3)ccc21 [Compound 23, ({[(1E)-(1-ethyl-5-{[3-(trifluoromethyl)benzyl]oxy}-1H-indol-3-yl)methylidene]amino}oxy)acetic acid]
79% | O=C(O)CO/N=C/c1cn(Cc2ccccc2)c2ccc(OCc3cccc(C(F)(F)F)c3)cc12 [Compound 24, ({[(1E)-(1-benzyl-5-{[3-(trifluoromethyl)benzyl]oxy}-1H-indol-3-yl)methylidene]amino}oxy)acetic acid]
68% | C=CCn1cc(/C=N/OCC(=O)O)c2cc(OCc3cccc(C)c3)ccc21 [Compound 25, {[((1E)-{1-allyl-5-[(3-methylbenzyl)oxy]-1H-indol-3-yl}methylidene)amino]oxy}acetic acid]
99% | Cc1cccc(COc2ccc3c(c2)c(/C=N/OCC(=O)O)cn3Cc2ccccc2)c1 [Compound 27, {[((1E)-{1-benzyl-5-[(3-methylbenzyl)oxy]-1H-indol-3-yl}methylidene)amino]oxy}acetic acid]
88% | Cn1cc(/C=N/OCC(=O)O)c2cc(OCc3ccc(C(C)(C)C)cc3)ccc21 [Compound 34, {[((1E)-{5-[(4-tert-butylbenzyl)oxy]-1-methyl-1H-indol-3-yl}methylidene)amino]oxy}acetic acid]
92% | C#CCn1cc(/C=N/OCC(=O)O)c2cc(OCc3cccc(Br)c3)ccc21 [Compound 36, [({(1E)-[5-[(3-bromobenzyl)oxy]-1-(2-propynyl)-1H-indol-3-yl]methylidene}amino)oxy]acetic acid]
70% | Cn1cc(/C=N/OCC(=O)O)c2cc(OCc3cccc(Br)c3)ccc21 [Compound 37, {[((1E)-{5-[(3-bromobenzyl)oxy]-1-methyl-1H-indol-3-yl}methylidene)amino]oxy}acetic acid]
